Experimental data as given in patent US9987296B2, “Compositions including anthocyanin or anthocyanidin for the prevention or treatment of Articular cartilage-associated conditions” (priority 2008, dated 2018).
Read-outs that look alike come from different tables or passages of the source.

Legend:
[1] = system: rodent pancreatic beta-cells; conditions: in culture, with 4 and 10 mM glucose; cited from earlier work
[2] = system: osteoarthritic synovium explants; conditions: cited from earlier work
[3] = system: Human articular chondrocytes; assay: Cell viability (calcein AM / ethidium homodimer staining); type: cell-based; conditions: concentrations above 100 uM up to 500 uM, 96 hours
Description: Chondrocytes were isolated from non-arthritic regions of adult human articular cartilage (N=3 donors) and expanded in tissue culture flasks in DMEM supplemented with 10% calf serum.
At higher concentrations, the color of the anthocyanin interfered with the spectrophotometer reading; therefore, cell viability was additionally measured with calcein staining as follows: Live and dead cells were simultaneously viewed in situ with a confocal microscope (LSM 510; Zeiss, Wetzlar, Germany), using a fluorescent double stain. Calcein AM (1 uM; Invitrogen, Carlsbad, Calif.), a fluorescein derivative that is metabolized by nonspecific esterase present in viable cells, was used to stain live cells. The use of 8 uM ethidium homodimer (Invitrogen), a nucleic acid stain that is excluded by intact cell membranes, enabled visualization of the nuclei of dead cells. After 96-hour exposure to the appropriate concentration of anthocyanins, chondrocytes were cultured in DMEM supplemented with Calcein AM and ethidium homodimer for 45 minutes. Live and dead cells were counted using an automated image analysis script written in Matlab (MathWorks, Natick, Mass.) to measure percentage cell viability.

[4] = system: bovine chondrocytes; assay: Matrix synthesis rate (35S) of bovine chondrocytes in alginate beads; type: cell-based; conditions: 100 uM with IL-1 5 ng/mL
Description: Chondrocytes were isolated from weight-bearing regions of young (18-30 months old) bovine femoral condyles. Primary cells were obtained from 3 different animals and suspended in beads of 2% alginate. The alginate beads were precultured in DMEM supplemented with 10% calf serum for 48 hours. Before the experiments, the chondrocytes were serum-starved overnight with 0.1% serum to reduce the effect of serum and to reduce anabolic activity to baseline.
For each treatment condition, 10 millicuries of ^35S was added to each well and incubated for the appropriate duration. At the appropriate harvest time point, each well was then washed extensively with PBS (5-6 times with 500 uL, of PBS), before trypsin and EDTA was added to dissolve alginate. After 20-30 minutes, the dissolved gels and released cells were transferred into 1.5 ml Eppendorf tubes with 150 uL, of calf serum (to promote pellet formation) and the cells were centrifuged at 2000 rpm for 5 minutes. The supernatant was removed via pipette without disturbing the cell pellet. The remaining cell and supernatant (approximately 300 ul) was then mixed with 500 uL of PBS and transferred to scintillation vials, to which 5 ml of scintillation fluid was dispensed. Each scintillation vial was capped, thoroughly vortexed and then placed in a gamma counter to measure gamma radiation emission for each sample. Each sample was measured for 5 minutes.

Compound: Oc1ccc(-c2[o+]c3cc(O)cc(O)c3cc2O)cc1.[Cl-] [Pelargonidin Chloride]
- insulin secretion [1]: stimulate insulin secretion

Compound: N[C@H]1C(O)O[C@H](CO)[C@@H](O)[C@@H]1O (stereo partly drawn) [glucosamine]
- increase of HA production ([2]; 0.5 mM): did not
- increase of HA production ([2]; 5 mM): approximately 2 fold

Compound: OC[C@H]1OC(Oc2cc3c(O)cc(O)cc3[o+]c2-c2ccc(O)cc2)[C@H](O)[C@@H](O)[C@H]1O.[Cl-] (stereo partly drawn) [pelargonidin-3-galactoses, reference compound]
- insulin secretion [1]: stimulate insulin secretion

Compound: Delphinidin-3-O-Glucoside
- toxicity relative to the other compounds tested [3]: least toxic at 200 μM
- matrix synthesis rates (anti-arthritic effect) ([4]; 12 hours, listed as Delphinidin-3-O-glucoside): reversed the effect of IL-1 suppression on matrix synthesis rates
- matrix synthesis rates (anti-arthritic effect) ([4]; 12 hours, listed as delphinidin-3-0-glucoside): anti-arthritic effect
- matrix synthesis rates (anti-arthritic effect) ([4]; 12 hours, listed as delphinidin-3-O-glucoside): anti-arthritic effect
- matrix synthesis rates (anti-arthritic effect) ([4]; 24 hours, listed as Delphinidin-3-O-glucoside): reversed the effect of IL-1 suppression on matrix synthesis rates
- matrix synthesis rates (anti-arthritic effect) ([4]; 24 hours, listed as delphinidin-3-0-glucoside): anti-arthritic effect
- matrix synthesis rates (anti-arthritic effect) ([4]; 24 hours, listed as delphinidin-3-O-glucoside): anti-arthritic effect
- insulin secretion [1]: stimulate insulin secretion
